According to US20160264565A1, “CRYSTALLINE DASATINIB PROCESS” (SHILPA MEDICARE LIMITED, priority 2013, published 2016):

Tests used:
[1] = Stability of the crystal form on drying; format: physicochemical; settings: drying for more than 20 hrs at 60-65° C.
Description: (§1) This stable form thus, offers various advantages in terms of storage, shelf life and favorable impurity profile.
(§2) The new stable crystalline Form-SDI is characterized by 3-methylbutan-1-ol content in range of 10-16% w/w. […] 3-methylbutan-1-ol content even on drying for more than 20 hrs at 60-65° C. This offers advantages for large scale manufacturing in terms of handling, storage, shelf life and favorable impurity profile.

[2] = Stability on handling and storage; format: physicochemical; settings: handle and store for longer time
Description: as §1, §2

stoichiometry (3-methylbutan-1-ol content) on drying [1]: retains its stoichiometry
change in morphology and physicochemical characteristics on handling and storage for longer time ([2]; listed as Form-SDI): without any measurable change
Structure (SMILES): Cc1nc(Nc2ncc(C(=O)Nc3c(C)cccc3Cl)s2)cc(N2CCN(CCO)CC2)n1 [Crystalline Form-SDI of Dasatinib, N-(2-chloro-6-methylphenyl)-2-[[6-[4-(2-hydroxyethyl)-1-piperazinyl]-2-methyl-4-pyrimidinyl]amino]-5-thiazolecarboxamide]
change in morphology and physicochemical characteristics on handling and storage for longer time [2]: without any significant or measurable change
